Measured values taken from ChEMBL document CHEMBL6114969, “Ultra-short lipopeptides containing d-amino acid exhibiting excellent stability and antibacterial activity against gram-positive bacteria” (Eur J Med Chem, 2025).
Converted amounts (≈) assume the structure as drawn. The source made the active and inactive calls. The rule behind the calls is not given here. Where a SMILES comes first, the peptide text is derived from it. Bridges are numbered along the chain shown (N, C = ends). [ ]: non-standard residue; d: D form. The star is where a group is joined. X1 = CC[C@H](C)CCCCC(=O)*; dDab = NCC[C@@H](N)C(=O)O; Dab = NCC[C@H](N)C(=O)O

Key:
Staphylococcus aureus [1] = experiment: Antibacterial activity against methicillin-resistant Staphylococcus aureus ATCC 33591 infected in Balb/c mouse model of pneumonia infection assessed as reduction in bacterial load in lung at 10 mg/kg, ip administered thrice at 4, 8 and 12 hrs post-infection measured after 24 hrs post-infection; format: functional, organism-based; settings: time 20.0 hrs
Staphylococcus aureus [2] = experiment: (§1) Antibacterial activity against methicillin-resistant Staphylococcus aureus ATCC 33591 infected in Balb/c mouse model of skin wound infection assessed as reduction in bacterial load in skin at 10 mg/kg, ip administered thrice at 1, 24 and 48 hrs post-infection measured after 72 hrs post-infection; format: functional, organism-based; settings: time 71.0 hrs
Staphylococcus aureus [3] = experiment: as §1, with “inflammatory cell infiltration” for “bacterial load”, “14 days by H and E staining based analysis” for “72 hrs post-infection”; format: functional, organism-based; settings: time 14.0 day
Staphylococcus aureus [4] = experiment: Antibacterial activity against methicillin-resistant Staphylococcus aureus ATCC 33591 infected in Balb/c mouse model of acute systemic infection at 10 mg/kg, ip measured after 5 days; format: functional, organism-based; settings: time 5.0 day
Staphylococcus aureus [5] = experiment: (§2) Antibacterial activity against methicillin-resistant Staphylococcus aureus ATCC 33591 infected in Balb/c mouse model of pneumonia infection assessed as reduction in TNF-alpha activity in lung at 10 mg/kg, ip administered thrice at 4, 8 and 12 hrs post-infection measured after 24 hrs post-infection by IHC analysis; format: functional, organism-based; settings: time 20.0 hrs
Staphylococcus aureus [6] = experiment: as §1, with “TNF-alpha activity” for “bacterial load”, “14 days by IHC analysis” for “72 hrs post-infection”; format: functional, organism-based; settings: time 14.0 day
Staphylococcus aureus [7] = experiment: as §1, with “IL-1beta activity” for “bacterial load”, “14 days by IHC analysis” for “72 hrs post-infection”; format: functional, organism-based; settings: time 14.0 day
Staphylococcus aureus [8] = experiment: as §2, with “inflammatory cell infiltration” for “TNF-alpha activity”, “H and E staining based” for “IHC”; format: functional, organism-based; settings: time 20.0 hrs
Staphylococcus aureus [9] = experiment: as §2, with “IL-1beta” for “TNF-alpha”; format: functional, organism-based; settings: time 20.0 hrs
Staphylococcus aureus [10] = experiment: as §2, with “bleeding” for “TNF-alpha activity”, “H and E staining based” for “IHC”; format: functional, organism-based; settings: time 20.0 hrs
Staphylococcus aureus [11] = experiment: as §1, with “in keratosis” for “in bacterial load”, “in wound surface” for “in skin”, “after 14 days by IHC analysis” for “after 72 hrs post-infection”; format: functional, organism-based; settings: time 14.0 day
Staphylococcus aureus [12] = experiment: as §2, with “alveolar contraction” for “TNF-alpha activity”, “H and E staining based” for “IHC”; format: functional, organism-based
Staphylococcus aureus [13] = experiment: Antibacterial activity against ciprofloxacin-resistant Staphylococcus aureus ATCC 25923 incubated for 18 to 24 hrs; format: functional; settings: time 18-24 hrs
Staphylococcus aureus [14] = experiment: Antibacterial activity against Staphylococcus aureus ATCC 29213 incubated for 18 to 24 hrs by broth microdilution method; format: functional; settings: time 18-24 hrs
Staphylococcus aureus [15] = experiment: Induction of drug resistance in methicillin-resistant Staphylococcus aureus ATCC 33591 at sub-MIC measured after 4 passages; format: functional, organism-based
Staphylococcus aureus [16] = experiment: Antibacterial activity against polymyxin B-resistant Staphylococcus aureus ATCC 25923 incubated for 18 to 24 hrs; format: functional; settings: time 18-24 hrs
Staphylococcus aureus [17] = experiment: Antibacterial activity against drug-resistant Staphylococcus aureus ATCC 25923 incubated for 18 to 24 hrs; format: functional; settings: time 18-24 hrs
Staphylococcus aureus [18] = experiment: Induction of drug resistance in Staphylococcus aureus ATCC 25923 assessed as fold increase in MIC at sub-MIC measured after 7 passages relative to control; format: functional
Staphylococcus aureus [19] = experiment: Induction of drug resistance in methicillin-resistant Staphylococcus aureus ATCC 33591 assessed as fold increase in MIC at sub-MIC measured after 8 passages relative to control; format: functional
Staphylococcus aureus [20] = experiment: Antibacterial activity against methicillin-resistant Staphylococcus aureus ATCC 33591 incubated for 18 to 24 hrs by broth microdilution method; format: functional; settings: time 18-24 hrs
Staphylococcus aureus [21] = experiment: Induction of drug resistance in Staphylococcus aureus ATCC 25923 at sub-MIC measured after 2 passages; format: functional, organism-based
[22] = system: Staphylococcus epidermidis; experiment: Antibacterial activity against Staphylococcus epidermidis ATCC 12228 incubated for 18 to 24 hrs by broth microdilution method; format: functional; settings: time 18-24 hrs
Staphylococcus aureus [23] = experiment: Antibacterial activity against drug-resistant methicillin-resistant Staphylococcus aureus ATCC 33591 incubated for 18 to 24 hrs; format: functional; settings: time 18-24 hrs
Staphylococcus aureus [24] = experiment: Antibacterial activity against ciprofloxacin-resistant methicillin-resistant Staphylococcus aureus ATCC 33591 incubated for 18 to 24 hrs; format: functional; settings: time 18-24 hrs
Staphylococcus aureus [25] = experiment: Antibacterial activity against polymyxin B-resistant methicillin-resistant Staphylococcus aureus ATCC 33591 incubated for 18 to 24 hrs; format: functional; settings: time 18-24 hrs
Staphylococcus aureus [26] = experiment: Antibacterial activity against Staphylococcus aureus ATCC 25923 incubated for 18 to 24 hrs by broth microdilution method; format: functional; settings: time 18-24 hrs
Enterococcus faecalis = experiment: Antibacterial activity against Enterococcus faecalis ATCC 29212 incubated for 18 to 24 hrs by broth microdilution method; format: functional; settings: time 18-24 hrs
[27] = Toxicity in Balb/c mouse assessed as spleen atrophy at 20 mg/kg, ip measured after 7 days; format: organism-based; settings: in vivo, 168 h, time 7 day
[28] = Toxicity in Balb/c mouse assessed as cell swelling in lung at 20 mg/kg, ip measured after 7 days by H and E staining based analysis; format: organism-based; settings: in vivo, 168 h, time 7 day
[29] = Toxicity in Balb/c mouse assessed as spleen pigmentation at 20 mg/kg, ip measured after 7 days; format: organism-based; settings: in vivo, 168 h, time 7 day
[30] = Toxicity in Balb/c mouse assessed as cell swelling in kidney at 20 mg/kg, ip measured after 7 days by H and E staining based analysis; format: organism-based; settings: in vivo, 168 h, time 7 day
[31] = Toxicity in Balb/c mouse assessed as cell swelling in spleen at 20 mg/kg, ip measured after 7 days by H and E staining based analysis; format: organism-based; settings: in vivo, 168 h, time 7 day
[32] = Toxicity in Balb/c mouse assessed as change in liver co-efficient at 20 mg/kg, ip measured after 7 days; format: organism-based; settings: in vivo, 168 h, time 7 day
[33] = Toxicity in Balb/c mouse assessed as inflammatory cell infiltration in liver at 20 mg/kg, ip measured after 7 days by H and E staining based analysis; format: organism-based; settings: in vivo, 168 h, time 7 day
[34] = Toxicity in Balb/c mouse assessed as change in serum CREA level at 20 mg/kg, ip measured after 7 days; format: organism-based; settings: in vivo, 168 h, time 7 day
[35] = Toxicity in Balb/c mouse assessed as kidney atrophy at 20 mg/kg, ip measured after 7 days; format: organism-based; settings: in vivo, 168 h, time 7 day
[36] = Toxicity in Balb/c mouse assessed as change in serum AST level at 20 mg/kg, ip measured after 7 days; format: organism-based; settings: in vivo, 168 h, time 7 day
[37] = Toxicity in Balb/c mouse assessed as kidney pigmentation at 20 mg/kg, ip measured after 7 days; format: organism-based; settings: in vivo, 168 h, time 7 day
[38] = Toxicity in Balb/c mouse assessed as inflammatory cell infiltration in kidney at 20 mg/kg, ip measured after 7 days by H and E staining based analysis; format: organism-based; settings: in vivo, 168 h, time 7 day
[39] = Toxicity in Balb/c mouse assessed as change in serum ALT level at 20 mg/kg, ip measured after 7 days; format: organism-based; settings: in vivo, 168 h, time 7 day
[40] = Toxicity in Balb/c mouse assessed as cell swelling in liver at 20 mg/kg, ip measured after 7 days by H and E staining based analysis; format: organism-based; settings: in vivo, 168 h, time 7 day
[41] = Toxicity in Balb/c mouse assessed as change in serum BUN level at 20 mg/kg, ip measured after 7 days; format: organism-based; settings: in vivo, 168 h, time 7 day
Staphylococcus aureus [42] = experiment: Induction of drug resistance in Staphylococcus aureus ATCC 25923 assessed as fold increase in MIC at sub-MIC measured after 10 passages relative to control; format: functional
Staphylococcus aureus [43] = experiment: Induction of drug resistance in methicillin-resistant Staphylococcus aureus ATCC 33591 assessed as fold increase in MIC at sub-MIC measured after 14 passages relative to control; format: functional

With `CC(C)CCCCC(=O)N[C@@H](CCN)C(=O)N[C@H](C(=O)N[C@@H](CCN)C(=O)N[C@H]1CCNC(=O)[C@H]([C@@H](C)O)NC(=O)[C@H](CCN)NC(=O)[C@H](CCN)NC(=O)[C@H](CC(C)C)NC(=O)[C@@H](Cc2ccccc2)NC(=O)[C@@H](CCN)NC1=O)[C@@H](C)O.CC[C@H](C)CCCCC(=O)N[C@@H](CCN)C(=O)N[C@H](C(=O)N[C@@H](CCN)C(=O)N[C@H]1CCNC(=O)[C@H]([C@@H](C)O)NC(=O)[C@H](CCN)NC(=O)[C@H](CCN)NC(=O)[C@H](CC(C)C)NC(=O)[C@@H](Cc2ccccc2)NC(=O)[C@@H](CCN)NC1=O)[C@@H](C)O` (X1-[Dab]T[Dab][Dab][dDab][dF]L[Dab][Dab]T; lactam 4-C) the Activity (Staphylococcus aureus [1]) was “Active”, the Activity (Staphylococcus aureus [2]) was “Active” and the Activity (Staphylococcus aureus [3]) was “Active”. The Activity (Staphylococcus aureus [4]) was “Active”, the Activity (Staphylococcus aureus [5]) was “Active” and the Activity (Staphylococcus aureus [6]) was “Active”. The Activity (Staphylococcus aureus [7]) was “Active”, the Activity (Staphylococcus aureus [8]) was “Active” and the Activity (Staphylococcus aureus [9]) was “Active”. The Activity (Staphylococcus aureus [10]) was “Active”, the Activity (Staphylococcus aureus [11]) was “Active” and the Activity (Staphylococcus aureus [12]) was “inactive”.
In the case of `CNC(C)[C@@H]1CC[C@@H](N)[C@@H](O[C@H]2[C@H](O)[C@@H](O[C@H]3OC[C@](C)(O)[C@H](NC)[C@H]3O)[C@H](N)C[C@@H]2N)O1.CN[C@@H]1[C@@H](O)[C@@H](O[C@@H]2[C@@H](O)[C@H](O[C@H]3O[C@H](C(C)N)CC[C@H]3N)[C@@H](N)C[C@H]2N)OC[C@]1(C)O.CN[C@@H]1[C@@H](O)[C@@H](O[C@@H]2[C@@H](O)[C@H](O[C@H]3O[C@H](CN)CC[C@H]3N)[C@@H](N)C[C@H]2N)OC[C@]1(C)O` (stereo not given in full), the MIC (Staphylococcus aureus [13]) is reported as 128 µM, the MIC (Staphylococcus aureus [14]) is reported as 16 µM and the Activity (Staphylococcus aureus [15]) is reported as “Active”. For the same molecule, the MIC (Staphylococcus aureus [16]) was 128 µM, the MIC (Staphylococcus aureus [17]) was 128 µM and the “fold change (FC)” value (Staphylococcus aureus [18]) was 64. For the same molecule, the “fold change (FC)” value (Staphylococcus aureus [19]) was 256, the MIC (Staphylococcus aureus [20]) was 128 µM and the Activity (Staphylococcus aureus [21]) was “Active”. For the same molecule, the MIC [22] was 1 µM, the MIC (Staphylococcus aureus [23]) was 128 µM and the MIC (Staphylococcus aureus [24]) was over 128 µM. The MIC (Staphylococcus aureus [25]) was over 128 µM, the MIC (Staphylococcus aureus [26]) was 16 µM and the MIC (Enterococcus faecalis) was 16 µM.
For `CC(C)CCCCC(=O)N[C@@H](CCN)C(=O)N[C@H](C(=O)N[C@@H](CCN)C(=O)N[C@H]1CCNC(=O)[C@H]([C@@H](C)O)NC(=O)[C@H](CCN)NC(=O)[C@H](CCN)NC(=O)[C@H](CC(C)C)NC(=O)[C@@H](Cc2ccccc2)NC(=O)[C@H](CCN)NC1=O)[C@@H](C)O.CC[C@H](C)CCCCC(=O)N[C@@H](CCN)C(=O)N[C@H](C(=O)N[C@@H](CCN)C(=O)N[C@H]1CCNC(=O)[C@H]([C@@H](C)O)NC(=O)[C@H](CCN)NC(=O)[C@H](CCN)NC(=O)[C@H](CC(C)C)NC(=O)[C@@H](Cc2ccccc2)NC(=O)[C@H](CCN)NC1=O)[C@@H](C)O` (X1-[Dab]T[Dab][Dab][Dab][dF]L[Dab][Dab]T; lactam 4-C), the Activity [27] was “Toxic”, the Activity [28] was “Toxic” and the Activity [29] was “Toxic”. The Activity [30] was “Toxic”, the Activity [31] was “Toxic” and the Activity [32] was “Toxic”. The Activity [33] was “Toxic”, the Activity [34] was “Toxic” and the Activity [35] was “Toxic”. For the same molecule, the Activity [36] was “Non-toxic”, the Activity [37] was “Toxic” and the Activity [38] was “Toxic”. For the same molecule, the Activity [39] was “Non-toxic”, the Activity [40] was “Toxic” and the Activity [41] was “Non-toxic”.
With `C[C@@H](O)[C@H]1C(=O)N2C(C(=O)O)=C(SCCNC=N)C[C@H]12` [IMIPENEM ANHYDROUS] the MIC (Staphylococcus aureus [14]) was 2 µM (≈ 0.599 µg/mL), the “fold change (FC)” value (Staphylococcus aureus [42]) was 2048 and the “fold change (FC)” value (Staphylococcus aureus [43]) was 64. The MIC (Staphylococcus aureus [20]) was 32 µM (≈ 9.58 µg/mL), the Activity (Staphylococcus aureus [21]) was “Active” and the MIC [22] was 4 µM (≈ 1.2 µg/mL). It also gave an MIC (Staphylococcus aureus [26]) of 4 µM (≈ 1.2 µg/mL) and an MIC (Enterococcus faecalis) of 2 µM (≈ 0.599 µg/mL).
